One data set has as its target T1, human SGLT1 (Homo sapiens, UniProt P13866).
T1 construct: expressed in transfected cells
T1 sequence (P13866 1-664): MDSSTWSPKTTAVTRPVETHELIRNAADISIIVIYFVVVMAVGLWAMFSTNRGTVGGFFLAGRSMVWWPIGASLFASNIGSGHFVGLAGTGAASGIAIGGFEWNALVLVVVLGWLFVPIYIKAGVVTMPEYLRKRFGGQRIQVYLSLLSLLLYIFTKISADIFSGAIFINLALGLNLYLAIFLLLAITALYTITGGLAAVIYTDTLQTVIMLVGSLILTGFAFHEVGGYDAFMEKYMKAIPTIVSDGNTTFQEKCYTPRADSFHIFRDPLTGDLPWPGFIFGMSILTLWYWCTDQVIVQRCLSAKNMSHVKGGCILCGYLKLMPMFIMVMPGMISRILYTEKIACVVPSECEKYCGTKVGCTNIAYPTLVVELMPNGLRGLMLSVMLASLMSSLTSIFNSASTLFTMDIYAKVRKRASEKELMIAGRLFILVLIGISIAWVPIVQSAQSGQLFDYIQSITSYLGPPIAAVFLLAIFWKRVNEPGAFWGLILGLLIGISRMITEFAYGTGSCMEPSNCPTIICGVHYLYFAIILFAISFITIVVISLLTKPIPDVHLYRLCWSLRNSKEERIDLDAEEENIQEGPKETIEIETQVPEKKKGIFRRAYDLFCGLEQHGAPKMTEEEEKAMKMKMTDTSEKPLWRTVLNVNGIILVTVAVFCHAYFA
Nature of the data set: Assay for inhibitory effects on human SGLT1 activity (uptake of methyl-α-D-glucopyranoside). It counts as cell-based. The note with it: CS1-5-11D cells (CHO-K1 stably expressing human SGLT1); uptake of 1 mM 14C-labeled α-MG, 37° C., 1 hour. The method, then:
Assay for Inhibitory Effects on Human SGLT1 Activity
1) Cloning and Construction of the Vector Expressing Human SGLT1
The cDNA library was prepared for PCR amplification by reverse transcription from total RNA deprived from human small intestine (Ori gene) using oligo-dT as a primer. Using this cDNA library as a template, the DNA fragment coding 1 to 2005 bp of human SGLT1 (ACCESSION: M24847), which was reported by Hediger et al., was amplified by PCR method and inserted into the multi-cloning site of pcDNA3.1(−) (Invitrogen). The DNA sequence inserted was perfectly matched to the previously reported sequence of human SGLT1.
2) Establishment of Cell Line Stably Expressing Human SGLT1
The expression vector of human SGLT1 was digested by Sca I into a linear DNA. The linear DNA was transfected into CHO-K1 cells by means of lipofection (Effectene Transfection Reagent: QIAGEN). Neomycin resistant cell lines were selected by culture in the medium containing G418 (1 mg/mL, LIFE TECHNOLOGIES), and then the activity against the uptake of methyl-α-D-glucopyranoside was measured by the method described below. […] CS1-5–11D cells were cultured in the presence of G418 at 200 μg/mL.
3) Measurement of the Inhibitory Activity Against the Uptake of methyl-α-D-glucopyranoside (α-MG)
CS1-5-11D cells were seeded into a 96-well culture plate at a density of 3×10^4 cells/well and cultured for 2 days, and were used in the uptake assay. A mixture of non-labeled (Sigma) and ^14C-labeled α-MG (Amersham Pharmcia Biotec) added to the uptake buffer (pH 7.4; containing 140 mM sodium chloride, 2 mM potassium chloride, 1 mM calcium chloride, 1 mM magnesium chloride, 10 mM 2-[4-(2-hydroxyethyl)-1-piperazinyl]ethane sulfonic acid, and 5 mM tris(hydroxymethyl)aminomethane) at the final concentration of 1 mM. A test compound was dissolved in dimethyl sulfoxide, and then appropriately diluted with distilled water. The test compound solution was added to the uptake buffer containing 1 mM α-MG, and designated as a measurement buffer. For the control group, the measurement buffer without any test compound was prepared. For measuring the basal uptake, a basal buffer which contains 140 mM chorine chloride instead of 140 mM sodium chloride was prepared. After removing the culture medium of CS1-5-11D cells, 180 μL of the pre-treatment buffer (the uptake buffer not containing α-MG) was added to each well and incubated at 37° C. for 10 minutes. After repeating the same treatment, the pre-treatment buffer was removed. To each well was added 75 μL of the measurement buffer or the basal buffer was added and incubated at 37° C. for 1 hour. After removing the measurement buffer, cells were washed twice with 180 μL per well of the washing buffer (the basal buffer containing 10 mM non-labeled α-MG). The cells were solubilized by 75 μL per well of 0.2 mol/L sodium hydroxide. The cell lysates were transferred into PicoPlates (Packard), and then added 150 μL of MicroScint-40 (Packard) and mixed. Radioactivity was measured by means of micro-scintillation counter TopCount (Packard). One hundred % was set to the difference between the uptake in the control group and the basal uptake, and the uptake of methyl α-D-glucopyranoside at each drug concentration were calculated. The drug concentration, at which 50% uptake of methyl α-D-glucopyranoside was inhibited (IC50 value), was calculated using logit plot.

The subject of a further data set is diabetic rats. Nature of the data set: Assay for inhibitory effects on blood glucose level increase in rats (liquid meal tolerance test). It counts as in vivo. The settings on record: diabetic rats (nicotinamide/streptozotocin), 10 mg/kg orally, liquid meal 15 kcal/kg, mean±S.E. The method, then:
Assay for Inhibitory Effects on Blood Glucose Level Increase in Rats
1) Preparation of Diabetic Rat Model
Ten weeks old rats were injected nicotinamide (230 mg/kg) intraperitoneally. Fifteen minutes after injection, they were injected streptozotocin (65 mg/kg) intravenously from tail vain under anesthesia with ether. Two weeks later, rats were fasted for 5 hours and then oral glucose tolerance test (2 g/kg) was done.
2) Liquid Meal Tolerance Test
After 16 hours fasted, the diabetic rats were orally administered a test compound (10 mg/kg), which was suspended with 0.5% sodium carboxymethylcellulose (CMC), in the drug-treating group, or 0.5% sodium carboxymethylcellulose (CMC) alone in a control group. Immediately after the compound administration, 15 kcal/kg of liquid meal (No. 038, Conrol diet, assorted with dextrin and maltose; Oriental Yeast Co., Ltd.) was loaded orally. The blood was collected from tail artery immediately before (0 h), at 0.5 and 1 hour after administration, and treated with heparin immediately. The blood was centrifuged, and the plasma was collected to quantify the plasma glucose concentration. The values in the table are presented as the mean±S.E.

For another data set, the system named is Male C57BL/6J mice. Nature of the data set: Acute toxicity test. The class given is in vivo. The note with it: n=5, oral 1 g/kg, observed for 48 hours. On the procedure:
Male C57BL/6J mice (CLEA Japan, Inc.; 17 weeks old, 20–23 g, n=5) were fasted for 4 hours.

Broadly, the IC50 is the concentration that gives 50% inhibition. Read a low IC50 as greater potency in that assay. Turning to `CC(C)c1[nH]nc(O[C@@H]2O[C@H](CO)[C@@H](O)[C@H](O)[C@H]2O)c1Cc1ccccc1OCc1ccccc1` [Example 2, 4-(2-Benzyloxybenzyl)-3-(β-D-glucopyranosyloxy)-5-isopropyl-1H-pyrazole], on human SGLT1, half-maximal inhibition (IC50) was put at 18 nM. Also, the figures for the Plasma glucose concentration in the data set on diabetic rats (0 h (pretreatment)), with diabetic rats (0.5 h after administration) and in the data set with diabetic rats (1 h after administration) were 126 ± 7 mg/dL, 194 ± 7 mg/dL and 219 ± 16 mg/dL, respectively. The Number of death with Male C57BL/6J mice was 0/5. For `CC(C)c1[nH]nc(O[C@@H]2O[C@H](CO)[C@@H](O)[C@H](O)[C@H]2O)c1Cc1ccccc1OC1CCCCCC1` [Example 51, 4-(2-Cycloheptyloxybenzyl)-3-(β-D-glucopyranosyloxy)-5-isopropyl-1H-pyrazole], half-maximal inhibition on human SGLT1 (IC50) required 194 nM. The same measure, in the same setting: the value for `CC(C)c1c(Cc2ccccc2OCc2ccccc2)c(O[C@@H]2O[C@H](CO)[C@@H](O)[C@H](O)[C@H]2O)nn1CCO` [Example 9, 4-(2-Benzyloxybenzyl)-3-(β-D-glucopyranosyloxy)-1-(2-hydroxyethyl)-5-isopropyl-1H-pyrazole] was 8 nM; that for `CCc1c(Cc2ccccc2OCc2ccccc2)c(O[C@@H]2O[C@H](CO)[C@@H](O)[C@H](O)[C@H]2O)nn1CCO` [Example 19, 4-(2-Benzyloxybenzyl)-5-ethyl-3-(β-D-glucopyranosyloxy)-1-(2-hydroxyethyl)-1H-pyrazole] was 80 nM; that for `CC(C)c1[nH]nc(O[C@@H]2O[C@H](CO)[C@@H](O)[C@H](O)[C@H]2O)c1Cc1ccccc1OCc1cccc(Cl)c1` [Example 15, 4-[2-(3-Chlorobenzyloxy)benzyl]-3-(β-D-glucopyranosyloxy)-5-isopropyl-1H-pyrazole] was 1 nM. `CC(C)c1[nH]nc(O[C@@H]2O[C@H](CO)[C@@H](O)[C@H](O)[C@H]2O)c1Cc1ccccc1OCc1cccc(O)c1` [Example 12, 3-(β-D-Glucopyranosyloxy)-4-[2-(3-hydroxybenzyloxy)benzyl]-5-isopropyl-1H-pyrazole] gave an IC50 against human SGLT1 of 35 nM.

The compound `OCCn1nc(O[C@@H]2O[C@H](CO)[C@@H](O)[C@H](O)[C@H]2O)c(Cc2ccccc2OCc2ccccc2)c1C(F)(F)F` [Example 11, 4-(2-Benzyloxybenzyl)-3-(β-D-glucopyranosyloxy)-1-(2-hydroxyethyl)-5-trifluoromethyl-1H-pyrazole] displayed an IC50 at human SGLT1 of 13 nM.

At human SGLT1, `OCCCn1nc(O[C@@H]2O[C@H](CO)[C@@H](O)[C@H](O)[C@H]2O)c(Cc2ccccc2OCc2ccccc2)c1C(F)(F)F` [Example 13, 4-(2-Benzyloxybenzyl)-3-(β-D-glucopyranosyloxy)-1-(3-hydroxypropyl)-5-trifluoromethyl-1H-pyrazole] yielded an IC50 of 30 nM. This IC50 lies about 2.3-fold higher than the previous one. On the same count and under the same terms, for `OC[C@H]1O[C@@H](Oc2n[nH]c(C(F)(F)F)c2Cc2ccccc2OCc2ccccc2)[C@H](O)[C@@H](O)[C@@H]1O` [Example 21, 4-(2-Benzyloxybenzyl)-3-(β-D-glucopyranosyloxy)-5-trifluoromethyl-1H-pyrazole] the value was 14 nM.

These data come from patent US7217697B2, “Glucopyranosyloxypyrazole derivative medicinal composition containing the same medicinal use thereof and intermediate therefor” (Kissei Pharmaceutical Co., Ltd., priority 2001, dated 2007).
